# Key:
# [1] = molecular target: T1, Receptor-type tyrosine-protein phosphatase C (Homo sapiens, UniProt P08575); test: Inhibitory potency against CD45 Phosphatase
# T1 sequence (P08575 whole entry): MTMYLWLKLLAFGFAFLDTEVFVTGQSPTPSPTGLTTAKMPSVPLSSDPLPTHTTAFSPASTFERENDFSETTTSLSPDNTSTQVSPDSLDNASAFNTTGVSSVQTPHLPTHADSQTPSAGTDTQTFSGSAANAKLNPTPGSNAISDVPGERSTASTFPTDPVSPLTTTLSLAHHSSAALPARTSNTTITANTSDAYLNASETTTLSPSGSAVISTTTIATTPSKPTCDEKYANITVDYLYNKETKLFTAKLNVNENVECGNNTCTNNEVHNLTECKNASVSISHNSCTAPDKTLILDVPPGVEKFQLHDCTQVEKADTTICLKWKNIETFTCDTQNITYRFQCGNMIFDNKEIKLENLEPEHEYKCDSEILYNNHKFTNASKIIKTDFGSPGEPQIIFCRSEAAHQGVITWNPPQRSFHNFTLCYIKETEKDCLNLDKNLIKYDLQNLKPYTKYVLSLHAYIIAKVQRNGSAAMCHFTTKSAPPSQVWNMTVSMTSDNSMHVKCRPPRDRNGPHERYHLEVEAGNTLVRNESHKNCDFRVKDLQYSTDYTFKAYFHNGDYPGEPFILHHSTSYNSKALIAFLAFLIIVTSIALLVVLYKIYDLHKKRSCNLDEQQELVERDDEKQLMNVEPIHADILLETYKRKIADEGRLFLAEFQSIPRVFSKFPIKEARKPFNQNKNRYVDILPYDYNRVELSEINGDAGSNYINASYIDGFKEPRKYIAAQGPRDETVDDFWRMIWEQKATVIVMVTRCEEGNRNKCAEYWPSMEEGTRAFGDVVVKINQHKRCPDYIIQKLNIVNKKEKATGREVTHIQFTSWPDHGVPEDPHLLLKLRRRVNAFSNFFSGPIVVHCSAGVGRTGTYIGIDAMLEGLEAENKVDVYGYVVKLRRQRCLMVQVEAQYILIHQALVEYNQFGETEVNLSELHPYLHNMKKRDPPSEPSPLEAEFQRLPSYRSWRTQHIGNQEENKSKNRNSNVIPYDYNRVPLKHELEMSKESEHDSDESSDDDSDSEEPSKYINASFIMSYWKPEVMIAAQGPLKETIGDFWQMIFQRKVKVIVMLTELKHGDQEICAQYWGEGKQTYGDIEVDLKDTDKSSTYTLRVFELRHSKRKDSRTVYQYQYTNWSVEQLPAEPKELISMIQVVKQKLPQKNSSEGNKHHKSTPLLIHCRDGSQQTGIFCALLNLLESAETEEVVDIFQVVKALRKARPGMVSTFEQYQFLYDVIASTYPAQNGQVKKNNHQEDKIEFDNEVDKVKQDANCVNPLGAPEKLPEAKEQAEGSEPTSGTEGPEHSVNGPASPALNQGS
# [2] = molecular target: T2, M-phase inducer phosphatase 3 (Homo sapiens, UniProt P30307); test: Inhibitory potency against Cell division cycle 25 degree C
# T2 sequence (P30307 whole entry): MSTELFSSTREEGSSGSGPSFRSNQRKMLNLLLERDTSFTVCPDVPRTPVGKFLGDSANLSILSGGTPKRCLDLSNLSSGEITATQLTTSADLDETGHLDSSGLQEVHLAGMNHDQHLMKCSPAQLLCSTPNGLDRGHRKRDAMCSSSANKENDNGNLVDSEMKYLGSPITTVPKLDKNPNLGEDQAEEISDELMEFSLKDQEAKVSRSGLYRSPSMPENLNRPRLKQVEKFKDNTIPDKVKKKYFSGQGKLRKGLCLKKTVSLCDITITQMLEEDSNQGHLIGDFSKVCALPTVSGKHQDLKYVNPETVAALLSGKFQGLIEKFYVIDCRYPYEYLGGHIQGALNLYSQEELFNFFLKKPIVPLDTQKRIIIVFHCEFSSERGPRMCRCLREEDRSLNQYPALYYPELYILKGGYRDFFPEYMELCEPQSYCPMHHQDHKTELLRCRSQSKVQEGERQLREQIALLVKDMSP
# [3] = molecular target: Receptor-type tyrosine-protein phosphatase F (Homo sapiens, UniProt P10586); test: Inhibitory potency against LAR
# Sequence of Receptor-type tyrosine-protein phosphatase F (P10586 whole entry): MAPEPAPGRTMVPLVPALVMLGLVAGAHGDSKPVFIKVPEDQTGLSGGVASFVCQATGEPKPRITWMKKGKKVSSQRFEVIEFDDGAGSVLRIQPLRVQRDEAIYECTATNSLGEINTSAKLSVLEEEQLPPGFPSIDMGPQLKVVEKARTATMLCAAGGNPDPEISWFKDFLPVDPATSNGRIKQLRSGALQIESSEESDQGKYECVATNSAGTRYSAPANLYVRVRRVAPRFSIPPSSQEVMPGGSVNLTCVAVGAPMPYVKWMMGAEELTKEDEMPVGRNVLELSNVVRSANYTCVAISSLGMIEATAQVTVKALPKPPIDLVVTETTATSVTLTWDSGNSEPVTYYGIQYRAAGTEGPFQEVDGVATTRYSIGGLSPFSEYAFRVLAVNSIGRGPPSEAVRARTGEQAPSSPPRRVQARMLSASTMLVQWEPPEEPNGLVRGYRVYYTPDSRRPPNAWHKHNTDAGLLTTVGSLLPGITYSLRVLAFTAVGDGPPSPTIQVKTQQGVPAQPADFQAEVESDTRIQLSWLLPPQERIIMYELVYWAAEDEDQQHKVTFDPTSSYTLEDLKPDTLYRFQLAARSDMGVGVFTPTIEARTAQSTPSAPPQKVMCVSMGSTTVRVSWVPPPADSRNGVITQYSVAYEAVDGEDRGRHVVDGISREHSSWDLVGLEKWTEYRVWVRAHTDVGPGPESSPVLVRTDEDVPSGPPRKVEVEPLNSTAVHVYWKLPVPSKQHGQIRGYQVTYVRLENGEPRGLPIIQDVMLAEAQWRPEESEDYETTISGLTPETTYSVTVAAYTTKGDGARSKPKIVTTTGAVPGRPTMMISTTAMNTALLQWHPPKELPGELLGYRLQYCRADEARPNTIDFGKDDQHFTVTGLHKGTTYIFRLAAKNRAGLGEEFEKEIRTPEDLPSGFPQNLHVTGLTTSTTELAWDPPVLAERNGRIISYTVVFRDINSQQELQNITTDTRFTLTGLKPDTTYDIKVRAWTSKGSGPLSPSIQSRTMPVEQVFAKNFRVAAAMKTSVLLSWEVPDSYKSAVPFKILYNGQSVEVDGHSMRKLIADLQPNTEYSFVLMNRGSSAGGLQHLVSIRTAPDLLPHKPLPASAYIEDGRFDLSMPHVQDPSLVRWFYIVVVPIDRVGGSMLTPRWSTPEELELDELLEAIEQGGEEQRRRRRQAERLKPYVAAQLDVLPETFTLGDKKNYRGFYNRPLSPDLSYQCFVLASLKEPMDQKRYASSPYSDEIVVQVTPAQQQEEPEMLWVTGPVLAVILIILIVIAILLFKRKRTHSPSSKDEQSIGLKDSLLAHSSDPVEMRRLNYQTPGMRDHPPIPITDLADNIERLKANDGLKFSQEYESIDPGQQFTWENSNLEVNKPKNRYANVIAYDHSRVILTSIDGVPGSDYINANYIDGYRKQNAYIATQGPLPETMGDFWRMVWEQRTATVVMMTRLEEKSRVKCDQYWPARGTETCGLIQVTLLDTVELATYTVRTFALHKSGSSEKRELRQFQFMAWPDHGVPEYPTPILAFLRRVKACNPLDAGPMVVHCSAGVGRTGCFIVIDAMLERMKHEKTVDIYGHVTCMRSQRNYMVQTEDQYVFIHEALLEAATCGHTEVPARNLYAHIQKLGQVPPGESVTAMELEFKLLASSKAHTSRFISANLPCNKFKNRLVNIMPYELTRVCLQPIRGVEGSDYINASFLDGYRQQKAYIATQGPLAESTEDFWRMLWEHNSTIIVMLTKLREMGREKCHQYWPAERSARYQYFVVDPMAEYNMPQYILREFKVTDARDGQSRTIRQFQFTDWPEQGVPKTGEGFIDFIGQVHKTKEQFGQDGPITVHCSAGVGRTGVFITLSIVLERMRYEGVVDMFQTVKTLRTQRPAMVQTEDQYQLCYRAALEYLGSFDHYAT
# [4] = molecular target: Tyrosine-protein phosphatase non-receptor type 2 (Homo sapiens, UniProt P17706); test: Inhibition of T-cell Protein Tyrosine Phosphatase (TCPTP)
# Sequence of Tyrosine-protein phosphatase non-receptor type 2 (P17706 whole entry, looked up): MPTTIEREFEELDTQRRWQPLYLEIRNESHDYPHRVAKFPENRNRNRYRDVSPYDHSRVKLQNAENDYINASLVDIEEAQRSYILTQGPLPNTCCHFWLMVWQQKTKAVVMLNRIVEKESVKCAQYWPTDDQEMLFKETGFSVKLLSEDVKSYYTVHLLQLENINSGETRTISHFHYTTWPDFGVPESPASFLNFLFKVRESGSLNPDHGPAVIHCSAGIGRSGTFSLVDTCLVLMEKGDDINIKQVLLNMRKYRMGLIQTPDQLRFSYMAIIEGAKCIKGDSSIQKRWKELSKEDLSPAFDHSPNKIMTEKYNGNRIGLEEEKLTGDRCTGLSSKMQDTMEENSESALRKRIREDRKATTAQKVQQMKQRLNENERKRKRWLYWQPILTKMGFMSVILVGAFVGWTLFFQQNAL
# [5] = molecular target: T3, Tyrosine-protein phosphatase non-receptor type 11 (Homo sapiens, UniProt Q06124); test: Inhibitory potency against Tyrosine phosphatase SHP2
# T3 sequence (Q06124 whole entry): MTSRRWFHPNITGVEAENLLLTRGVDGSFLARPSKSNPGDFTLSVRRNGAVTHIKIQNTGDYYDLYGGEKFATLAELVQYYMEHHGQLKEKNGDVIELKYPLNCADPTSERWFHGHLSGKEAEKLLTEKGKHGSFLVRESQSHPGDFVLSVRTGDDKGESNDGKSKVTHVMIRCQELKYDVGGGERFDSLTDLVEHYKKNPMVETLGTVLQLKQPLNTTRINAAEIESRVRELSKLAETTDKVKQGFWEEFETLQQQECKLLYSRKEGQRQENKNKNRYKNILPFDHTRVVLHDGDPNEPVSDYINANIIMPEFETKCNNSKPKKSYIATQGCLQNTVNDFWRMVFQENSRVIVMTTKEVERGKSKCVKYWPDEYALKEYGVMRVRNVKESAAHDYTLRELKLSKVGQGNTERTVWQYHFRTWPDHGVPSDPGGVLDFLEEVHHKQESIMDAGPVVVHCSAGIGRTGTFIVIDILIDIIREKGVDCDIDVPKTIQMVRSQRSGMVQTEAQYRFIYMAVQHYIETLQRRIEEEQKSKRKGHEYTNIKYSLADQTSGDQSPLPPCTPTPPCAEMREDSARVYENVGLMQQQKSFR
# [6] = molecular target: T4, Tyrosine-protein phosphatase non-receptor type 1 (Homo sapiens, UniProt P18031); test: Inhibition of Protein-tyrosine phosphatase 1B (PTP1B)
# T4 sequence (P18031 whole entry): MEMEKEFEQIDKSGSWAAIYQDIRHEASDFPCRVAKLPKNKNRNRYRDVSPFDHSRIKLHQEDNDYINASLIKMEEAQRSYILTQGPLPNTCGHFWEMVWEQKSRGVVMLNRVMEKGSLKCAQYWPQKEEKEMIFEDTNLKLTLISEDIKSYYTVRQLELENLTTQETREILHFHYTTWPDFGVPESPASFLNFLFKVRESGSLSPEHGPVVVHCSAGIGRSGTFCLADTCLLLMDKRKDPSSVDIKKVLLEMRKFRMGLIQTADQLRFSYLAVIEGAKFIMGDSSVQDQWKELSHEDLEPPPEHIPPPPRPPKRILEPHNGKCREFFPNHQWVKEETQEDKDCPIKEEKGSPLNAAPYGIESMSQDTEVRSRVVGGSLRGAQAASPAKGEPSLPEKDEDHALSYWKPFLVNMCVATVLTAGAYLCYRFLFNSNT
Ki [1],Ki [2],Ki [3],Ki [4],Ki [5],Ki [6],SMILES
> 30 µM,> 30 µM,> 30 µM,24.8 µM,> 30 µM,–,COC(=O)c1c(O)cccc1OCCCCNC(=O)C(Cc1ccc(OC(C(=O)O)C(=O)O)cc1)NC(=O)OC(C)(C)C (stereo unspecified)
–,–,–,> 200 µM,–,> 200 µM,COC(=O)c1c(O)cccc1OCCCCNC(=O)[C@H](Cc1ccc(N(CCC(=O)O)C(=O)C(=O)O)cc1)NC(=O)OC(C)(C)C
–,–,–,> 200 µM,–,8.4 µM,COC(=O)c1c(O)cccc1OCCCCNC(=O)C(Cc1ccc(OC(C(=O)O)C(=O)NC2CC2)cc1)NC(=O)OC(C)(C)C (stereo unspecified)
–,–,–,> 200 µM,–,220 µM,COC(=O)c1c(O)cccc1OCCCCNC(=O)[C@H](Cc1ccc(OCC(=O)O)cc1)NC(=O)OC(C)(C)C
–,–,–,273 µM,–,48.6 µM,COC(=O)c1c(O)cccc1OCCCCNC(=O)[C@H](Cc1ccc(OC(C)C(=O)O)c(C(=O)O)c1)NC(=O)OC(C)(C)C (stereo partly specified)
> 30 µM,> 30 µM,> 30 µM,9 µM,> 30 µM,1.7 µM,CCC(CN(C(=O)C(=O)O)c1ccc(C[C@H](NC(=O)OC(C)(C)C)C(=O)NCCCCOc2cccc(O)c2C(=O)OC)cc1)C(=O)O (stereo partly specified)
–,–,–,> 30 µM,–,2.1 µM,COC(=O)c1c(O)cccc1OCCCCNC(=O)[C@H](Cc1ccc(OCC(=O)O)c(C(=O)O)c1)NC(=O)OC(C)(C)C
> 30 µM,> 30 µM,> 30 µM,1.97 µM,> 30 µM,0.16 µM,COC(=O)c1c(O)cccc1OCCCCNC(=O)[C@H](Cc1ccc(OC(C)C(=O)O)c(C(=O)O)c1)NC(=O)[C@H](Cc1ccccc1)NC(=O)OC(C)(C)C (stereo partly specified)
–,–,–,16.7 µM,–,3.2 µM,COC(=O)c1c(O)cccc1OCCCCNC(=O)[C@H](Cc1ccc(N(CC(C)C(=O)O)C(=O)C(=O)O)cc1)NC(=O)OC(C)(C)C (stereo partly specified)
–,–,–,129 µM,–,9.4 µM,COC(=O)c1c(O)cccc1OCCCCNC(=O)[C@H](Cc1ccc(OCC(=O)O)c(C(=O)O)c1)NC(C)=O
–,–,–,97.8 µM,–,15.2 µM,COC(=O)c1c(O)cccc1OCCCCNC(=O)[C@H](Cc1ccc(N(CC(C(=O)O)c2ccccc2)C(=O)C(=O)O)cc1)NC(=O)OC(C)(C)C (stereo partly specified)
–,–,–,–,–,1.8 µM,CCC(CC(=O)O)N(C(=O)C(=O)O)c1ccc(C[C@H](NC(=O)OC(C)(C)C)C(=O)NCCCCOc2cccc(O)c2C(=O)OC)cc1 (stereo partly specified)
–,–,–,79.5 µM,–,13.8 µM,COC(=O)c1c(O)cccc1OCCCCNC(=O)C(Cc1ccc(OC(C(N)=O)C(=O)O)cc1)NC(=O)OC(C)(C)C (stereo unspecified)

# From ChEMBL document CHEMBL1145874, “Discovery and SAR of novel, potent and selective protein tyrosine phosphatase 1B inhibitors” (Bioorg Med Chem Lett, 2003)
